Assay results: article PMC9410420, “Novel Labdane Diterpenes-Based Synthetic Derivatives: Identification of a Bifunctional Vasodilator That Inhibits CaV1.2 and Stimulates KCa1.1 Channels” (Marine Drugs, 2022)
Like-named read-outs stand apart in the source and are kept apart here.

What was measured:
[1] = tested on: rat aorta rings; assay: Phenylephrine-induced contraction of rat aorta rings (pharmaco-mechanical coupling); details: Rattus norvegicus, 0.3 µM phenylephrine
Experimental: The abdominal aorta was gently cleaned of adipose and connective tissues and cut into 3-mm wide rings. These were mounted in organ baths between two parallel, L-shaped, stainless-steel hooks, with one fixed in place and the other connected to an isometric transducer. Rings were allowed to equilibrate for 60 min in modified Krebs-Henseleit solution (composition in mM: 118 NaCl, 4.75 KCl, 1.19 KH2PO4, 1.19 MgSO4, 25 NaHCO3, 11.5 glucose, 2.5 CaCl2, gassed with a 95% O2–5% CO2 gas mixture to create a pH of 7.4) under a passive tension of 1 g. During this equilibration period, the solution was changed every 15 min. Isometric tension was recorded using a digital PowerLab data acquisition system (PowerLab 8/30; ADInstruments). Ring viability was assessed by recording the response to 0.3 µM phenylephrine and 60 mM KCl. Where needed, the endothelium was removed by gently rubbing the lumen of the ring with a forceps tip. This procedure was validated by adding 10 µM acetylcholine at the plateau of phenylephrine-induced contraction; a relaxation greater than 70% or less than 10% denoted the presence or absence of functional endothelium, respectively.
Aorta rings were pre-contracted pharmaco-mechanically using 0.3 µM phenylephrine and electromechanically using 25–30 mM or 60 mM KCl. Once the contraction reached a plateau, the compound was added cumulatively into the organ bath. […] The response was calculated as the percentage of phenylephrine- or KCl-induced contraction (taken as 100%).

[2] = target: T1, CaV1.2 channel (Rattus norvegicus, UniProt P22002); assay: Whole-cell patch-clamp, Ba2+ current through CaV1.2 channels (IBa1.2) in rat tail artery myocytes; type: cell-based; details: pulses to 10 mV from Vh −50 mV
T1 construct: smooth muscle cells were freshly isolated; endogenous in cells; host or cells: freshly isolated rat tail main artery smooth muscle cells
Experimental: The tail main artery was dissected free of its connective tissue, and smooth muscle cells were freshly isolated under the following conditions. […] Cells stored in 0.05 mM Ca^2+ external solution containing 20 mM taurine and 0.5 mg/mL BSA at 4 °C under normal air were used for experiments within two days after isolation.
An Axopatch 200B patch-clamp amplifier (Molecular Devices Corporation, Sunnyvale, CA, USA) was used to generate and apply voltage pulses to the clamped cells and record the corresponding membrane currents. Recording electrodes were pulled from borosilicate glass capillaries (WPI, Berlin, Germany) and fire-polished to obtain a pipette resistance of 2–4 MΩ, when filled with an internal solution. At the beginning of each experiment, the junction potential between the pipette and bath solution was electronically adjusted to zero. […] Electrophysiological responses were tested at room temperature (20–22 °C).
The conventional whole-cell patch-clamp method was employed to voltage-clamp smooth muscle cells. The internal solution consisted of (in mM) 100 CsCl, 10 HEPES, 11 EGTA, 2 MgCl2, 1 CaCl2 (pCa 8.4), 5 Na pyruvate, 5 succinic acid, 5 oxaloacetic acid, 3 Na2ATP, and 5 phosphocreatine; pH was adjusted to 7.4 with CsOH. IBa1.2 was recorded in an external solution containing 30 mM TEA and 5 mM Ba^2+. […] Data were collected once the current amplitude had been stabilized (usually 7–10 min after the whole-cell configuration had been obtained).

[3] = target: T1, CaV1.2 channel; assay: Voltage dependence of CaV1.2 channel steady-state activation and inactivation in rat tail artery myocytes; type: cell-based; details: for Slope inact (slope factor of inactivation) / V50 inact (50% inactivation potential): Vh −80 mV
Description: An Axopatch 200B patch-clamp amplifier (Molecular Devices Corporation, Sunnyvale, CA, USA) was used to generate and apply voltage pulses to the clamped cells and record the corresponding membrane currents. Recording electrodes were pulled from borosilicate glass capillaries (WPI, Berlin, Germany) and fire-polished to obtain a pipette resistance of 2–4 MΩ, when filled with an internal solution. At the beginning of each experiment, the junction potential between the pipette and bath solution was electronically adjusted to zero. After compensation for whole-cell capacitance and series resistance (between 70% and 75%), current signals were low-pass filtered at 1 kHz and digitized at 3 kHz, before being stored on a computer hard disk. Electrophysiological responses were tested at room temperature (20–22 °C).
Cells were continuously superfused with an external solution containing 0.1 mM Ca^2+ and 30 mM TEA using a peristaltic pump (LKB 2132, Bromma, Sweden) at a flow rate of 400 µL/min. The conventional whole-cell patch-clamp method was employed to voltage-clamp smooth muscle cells. The internal solution consisted of (in mM) 100 CsCl, 10 HEPES, 11 EGTA, 2 MgCl2, 1 CaCl2 (pCa 8.4), 5 Na pyruvate, 5 succinic acid, 5 oxaloacetic acid, 3 Na2ATP, and 5 phosphocreatine; pH was adjusted to 7.4 with CsOH. IBa1.2 was recorded in an external solution containing 30 mM TEA and 5 mM Ba^2+. The current was elicited with 250-ms clamp pulses (0.067 Hz) to 10 mV, from a Vh of −50 mV. Data were collected once the current amplitude had been stabilized (usually 7–10 min after the whole-cell configuration had been obtained).
Steady-state activation curves were derived from the current–voltage relationships. Conductance (G) was calculated from the equation G = IBa1.2/(Em − Erev), where: IBa1.2 is the peak current elicited by depolarizing test pulses between −50 mV and 40 mV from a Vh of −50 mV; Em is the membrane potential; and Erev is the reversal potential (estimated from the extrapolated current-voltage curves in Figure 2). Gmax is the maximal Ba^2+ conductance (calculated at potentials ≤40 mV). The G/Gmax ratio was plotted against the membrane potential and fitted to the Boltzmann equation [40]. Steady-state inactivation curves were obtained using a double-pulse protocol. Once various levels of the conditioning potential had been applied for 5 s, followed by a short (5-ms) return to the Vh of −80 mV, a test pulse (250 ms) to 10 mV was delivered to evoke the current. The delay between the conditioning potential and the test pulse allowed the full or near-complete deactivation of the channels, simultaneously avoiding partial recovery from inactivation. K^+ currents were blocked with 30 mM TEA in the external solution and Cs^+ in the internal solution. […] The osmolarity of the 30 mM TEA- and 5 mM Ba^2+-containing external solution (320 mosmol, adjusted with NaCl if required) and that of the internal solution (290 mosmol) were measured with an osmometer (Osmostat OM 6020, Menarini Diagnostics, Florence, Italy).

T1 sequence (P22002 whole entry): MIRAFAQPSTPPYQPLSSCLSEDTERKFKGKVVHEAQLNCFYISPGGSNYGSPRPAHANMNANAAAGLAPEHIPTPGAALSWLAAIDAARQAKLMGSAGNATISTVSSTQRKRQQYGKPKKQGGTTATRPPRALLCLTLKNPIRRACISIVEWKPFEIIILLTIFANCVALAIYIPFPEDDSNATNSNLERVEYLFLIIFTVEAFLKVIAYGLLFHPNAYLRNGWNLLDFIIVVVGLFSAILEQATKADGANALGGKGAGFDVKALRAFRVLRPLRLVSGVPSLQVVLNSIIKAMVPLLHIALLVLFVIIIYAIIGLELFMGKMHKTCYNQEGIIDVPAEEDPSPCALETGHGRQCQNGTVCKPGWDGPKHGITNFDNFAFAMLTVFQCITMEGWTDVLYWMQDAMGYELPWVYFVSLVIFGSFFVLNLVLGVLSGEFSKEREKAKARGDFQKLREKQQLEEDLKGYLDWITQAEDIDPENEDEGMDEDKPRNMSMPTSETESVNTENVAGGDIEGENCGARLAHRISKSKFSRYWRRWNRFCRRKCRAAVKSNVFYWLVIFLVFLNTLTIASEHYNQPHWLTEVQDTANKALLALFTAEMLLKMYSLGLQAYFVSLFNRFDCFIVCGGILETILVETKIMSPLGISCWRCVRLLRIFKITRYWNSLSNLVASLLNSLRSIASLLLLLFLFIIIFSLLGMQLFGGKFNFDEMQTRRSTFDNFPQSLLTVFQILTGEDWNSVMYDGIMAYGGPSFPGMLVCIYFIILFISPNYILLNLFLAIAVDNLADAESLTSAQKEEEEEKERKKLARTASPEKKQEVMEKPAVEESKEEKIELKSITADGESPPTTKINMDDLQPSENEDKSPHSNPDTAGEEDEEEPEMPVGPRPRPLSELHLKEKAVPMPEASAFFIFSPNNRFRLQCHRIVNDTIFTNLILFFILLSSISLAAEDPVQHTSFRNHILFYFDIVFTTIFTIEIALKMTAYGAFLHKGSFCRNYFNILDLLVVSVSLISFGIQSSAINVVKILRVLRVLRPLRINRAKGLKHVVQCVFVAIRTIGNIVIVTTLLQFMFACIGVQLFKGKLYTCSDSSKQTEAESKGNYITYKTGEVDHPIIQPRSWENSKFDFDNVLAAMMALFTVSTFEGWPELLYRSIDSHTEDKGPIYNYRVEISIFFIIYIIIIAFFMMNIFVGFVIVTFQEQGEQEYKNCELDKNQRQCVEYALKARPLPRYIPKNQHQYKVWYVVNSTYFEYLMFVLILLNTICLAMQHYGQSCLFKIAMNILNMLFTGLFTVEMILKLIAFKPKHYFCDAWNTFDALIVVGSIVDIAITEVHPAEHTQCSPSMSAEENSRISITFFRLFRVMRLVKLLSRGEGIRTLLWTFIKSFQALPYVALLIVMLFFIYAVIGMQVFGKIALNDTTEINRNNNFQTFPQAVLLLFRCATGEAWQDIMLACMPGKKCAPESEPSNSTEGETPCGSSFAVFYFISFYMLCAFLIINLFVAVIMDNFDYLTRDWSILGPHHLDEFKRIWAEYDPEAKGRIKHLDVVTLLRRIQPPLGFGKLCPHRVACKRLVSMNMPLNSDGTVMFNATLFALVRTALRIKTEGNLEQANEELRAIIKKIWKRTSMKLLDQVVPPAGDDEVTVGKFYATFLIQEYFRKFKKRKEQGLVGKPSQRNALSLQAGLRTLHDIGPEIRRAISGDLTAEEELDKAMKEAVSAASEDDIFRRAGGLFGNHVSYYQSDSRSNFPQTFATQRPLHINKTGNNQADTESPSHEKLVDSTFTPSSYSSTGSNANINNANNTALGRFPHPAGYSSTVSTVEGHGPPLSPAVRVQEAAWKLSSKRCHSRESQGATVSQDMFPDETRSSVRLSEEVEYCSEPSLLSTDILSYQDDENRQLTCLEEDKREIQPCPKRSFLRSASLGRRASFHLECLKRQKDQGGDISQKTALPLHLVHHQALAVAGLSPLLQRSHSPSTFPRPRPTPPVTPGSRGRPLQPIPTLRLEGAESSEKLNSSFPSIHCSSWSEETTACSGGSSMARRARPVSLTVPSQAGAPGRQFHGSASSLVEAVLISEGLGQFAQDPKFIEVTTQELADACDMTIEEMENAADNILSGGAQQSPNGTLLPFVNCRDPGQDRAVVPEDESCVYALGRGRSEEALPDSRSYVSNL
T1 sequence (P54290 25-944 partner limits assumed): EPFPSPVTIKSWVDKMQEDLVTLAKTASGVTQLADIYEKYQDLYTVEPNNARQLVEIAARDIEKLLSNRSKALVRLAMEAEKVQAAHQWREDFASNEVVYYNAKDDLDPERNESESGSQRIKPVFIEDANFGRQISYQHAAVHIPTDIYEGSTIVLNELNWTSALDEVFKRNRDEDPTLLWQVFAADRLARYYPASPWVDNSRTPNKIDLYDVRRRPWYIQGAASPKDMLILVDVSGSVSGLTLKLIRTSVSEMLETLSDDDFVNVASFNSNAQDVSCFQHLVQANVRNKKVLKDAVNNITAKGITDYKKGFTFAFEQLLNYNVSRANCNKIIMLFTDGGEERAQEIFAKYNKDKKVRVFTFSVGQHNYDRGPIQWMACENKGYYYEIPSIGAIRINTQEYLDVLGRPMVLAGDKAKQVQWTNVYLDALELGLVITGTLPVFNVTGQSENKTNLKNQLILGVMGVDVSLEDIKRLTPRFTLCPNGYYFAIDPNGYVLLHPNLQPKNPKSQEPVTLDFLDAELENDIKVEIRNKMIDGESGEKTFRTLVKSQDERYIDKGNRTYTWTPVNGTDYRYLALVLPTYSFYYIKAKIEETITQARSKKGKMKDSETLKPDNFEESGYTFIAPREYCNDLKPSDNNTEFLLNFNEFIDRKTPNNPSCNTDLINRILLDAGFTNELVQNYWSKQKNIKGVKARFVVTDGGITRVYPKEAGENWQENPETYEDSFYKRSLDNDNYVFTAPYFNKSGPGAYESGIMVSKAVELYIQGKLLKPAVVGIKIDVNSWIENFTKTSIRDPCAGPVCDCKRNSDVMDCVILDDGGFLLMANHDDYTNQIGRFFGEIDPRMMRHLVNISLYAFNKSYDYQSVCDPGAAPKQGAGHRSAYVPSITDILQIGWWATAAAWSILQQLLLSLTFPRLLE
T1 sequence (P54290 945-1091 partner limits assumed): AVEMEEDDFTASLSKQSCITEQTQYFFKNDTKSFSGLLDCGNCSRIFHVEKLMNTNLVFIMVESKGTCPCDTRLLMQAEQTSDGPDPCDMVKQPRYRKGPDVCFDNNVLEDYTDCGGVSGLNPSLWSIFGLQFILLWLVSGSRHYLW
T1 sequence (P54287 whole entry partner): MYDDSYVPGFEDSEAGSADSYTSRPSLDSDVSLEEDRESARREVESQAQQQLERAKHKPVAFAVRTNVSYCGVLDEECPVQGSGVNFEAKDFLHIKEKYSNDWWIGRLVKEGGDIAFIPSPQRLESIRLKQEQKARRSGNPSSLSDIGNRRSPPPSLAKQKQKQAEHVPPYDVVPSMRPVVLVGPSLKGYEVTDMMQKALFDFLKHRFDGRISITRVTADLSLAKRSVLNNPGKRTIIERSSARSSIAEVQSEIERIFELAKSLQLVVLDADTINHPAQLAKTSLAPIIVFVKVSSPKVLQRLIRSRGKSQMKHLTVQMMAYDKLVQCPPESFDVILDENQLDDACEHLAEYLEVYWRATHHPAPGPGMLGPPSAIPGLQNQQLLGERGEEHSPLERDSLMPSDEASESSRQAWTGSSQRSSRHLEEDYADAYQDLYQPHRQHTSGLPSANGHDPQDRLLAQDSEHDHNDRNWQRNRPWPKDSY

CC1(C)CCC[C@]2(C)[C@@H](CC(=O)Nc3ccccc3-n3cccc3)[C@](C)(O)CC[C@@H]12 [Compound 7]
Emax ([1]; endothelium-denuded rat aorta rings, read-out: Emax (percent maximal inhibition), phenylephrine-induced contraction, −Endothelium): ≤ 60%
Emax ([1]; endothelium-intact rat aorta rings, read-out: Emax (percent maximal inhibition), phenylephrine-induced contraction, +Endothelium): 8.6 ± 9.3%
Emax ([2]; read-out: Emax (percent maximal inhibition), IBa1.2): 90.5 ± 5.8%
IC50 ([2]; read-out: IC50, IBa1.2 inhibition): 13.2 ± 5.4 µM
Slope act (slope factor of activation) ([3]; 10 µM compound): 8.36 ± 0.75
Slope inact (slope factor of inactivation) ([3]; 10 µM compound): −7.53 ± 0.24
V50 inact (50% inactivation potential) ([3]; 10 µM compound): −30.24 ± 1.29 mV
Ba2+ window current, potential of the peak ([3]; 10 µM, control peaked at −10 mV): about −15 mV
Ba2+ window current, relative amplitude at peak ([3]; 10 µM, control relative amplitude 0.078): 0.021
Slope inact (slope factor of inactivation) ([3]; 30 µM compound): −7.70 ± 0.51
V50 inact (50% inactivation potential) ([3]; 30 µM compound): −38.29 ± 2.00 mV
